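Step 1: Grow cells in 96-well plates. Step 2: Expose to compound for 48 hours at 5 concentrations. Step 3: Interpolate endpoints linearly; if unreached, use highest concentration. TGI denotes the concentration required for complete inhibition of growth.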
Assays:
Assay in all cases: growth of human tumour cells (NCI), 48 h
T-47D breast = tested on: T-47D breast
SF-295 CNS = tested on: SF-295 CNS
EKVX NSCLC = tested on: EKVX NSCLC
UACC-257 melanoma = tested on: UACC-257 melanoma
HT29 colon = tested on: HT29 colon
SNB-19 CNS = tested on: SNB-19 CNS
OVCAR-3 ovarian = tested on: OVCAR-3 ovarian
SK-OV-3 ovarian = tested on: SK-OV-3 ovarian
CAKI-1 renal = tested on: CAKI-1 renal
MOLT-4 leukemia = tested on: MOLT-4 leukemia
UO-31 renal = tested on: UO-31 renal
NCI-H226 lung = tested on: NCI-H226 lung
ACHN renal = tested on: ACHN renal
MDA-MB-231 breast = tested on: MDA-MB-231 breast
A498 renal = tested on: A498 renal
RPMI-8226 leukemia = tested on: RPMI-8226 leukemia
HCT-116 colon = tested on: HCT-116 colon

## CCOC(=O)c1nc2ccc(C(F)(F)F)cc2nc1NCc1ccc(OC)cc1
T-47D breast
  TGI: > 100 µM
SF-295 CNS
  TGI: > 100 µM
EKVX NSCLC
  TGI: > 100 µM
UACC-257 melanoma
  TGI: > 100 µM
HT29 colon
  TGI: > 100 µM
SNB-19 CNS
  TGI: > 100 µM
OVCAR-3 ovarian
  TGI: > 100 µM
SK-OV-3 ovarian
  TGI: > 100 µM
CAKI-1 renal
  TGI: > 100 µM
MOLT-4 leukemia
  TGI: > 100 µM
UO-31 renal
  TGI: > 100 µM
NCI-H226 lung
  TGI: > 100 µM
ACHN renal
  TGI: > 100 µM
MDA-MB-231 breast
  TGI: > 100 µM
A498 renal
  TGI: > 100 µM
RPMI-8226 leukemia
  TGI: > 100 µM
HCT-116 colon
  TGI: > 100 µM

## O=c1[nH]c2nnc(COc3ccc(Cl)cc3Cl)n2nc1Cc1ccccc1
T-47D breast
  TGI: > 100 µM
SF-295 CNS
  TGI: > 100 µM
EKVX NSCLC
  TGI: > 100 µM
UACC-257 melanoma
  TGI: > 100 µM
HT29 colon
  TGI: > 100 µM
SNB-19 CNS
  TGI: > 100 µM
OVCAR-3 ovarian
  TGI: 74.3 µM
SK-OV-3 ovarian
  TGI: 58.8 µM
CAKI-1 renal
  TGI: > 100 µM
MOLT-4 leukemia
  TGI: > 100 µM
UO-31 renal
  TGI: > 100 µM
NCI-H226 lung
  TGI: 67.5 µM
ACHN renal
  TGI: > 100 µM
MDA-MB-231 breast
  TGI: > 100 µM
A498 renal
  TGI: 82 µM
RPMI-8226 leukemia
  TGI: > 100 µM
HCT-116 colon
  TGI: > 100 µM

## Nc1c(C(=O)O)nnc2cc(Cl)c(Cl)cc12
T-47D breast
  TGI: > 100 µM
SF-295 CNS
  TGI: > 100 µM
EKVX NSCLC
  TGI: > 100 µM
UACC-257 melanoma
  TGI: > 100 µM
HT29 colon
  TGI: > 100 µM
SNB-19 CNS
  TGI: > 100 µM
OVCAR-3 ovarian
  TGI: > 100 µM
SK-OV-3 ovarian
  TGI: > 100 µM
CAKI-1 renal
  TGI: > 100 µM
MOLT-4 leukemia
  TGI: > 100 µM
UO-31 renal
  TGI: > 100 µM
NCI-H226 lung
  TGI: > 100 µM
ACHN renal
  TGI: > 100 µM
MDA-MB-231 breast
  TGI: > 100 µM
A498 renal
  TGI: > 100 µM
RPMI-8226 leukemia
  TGI: > 100 µM
HCT-116 colon
  TGI: > 100 µM

## COC(=O)C(N)CCCC(N)C(=O)NC(C)C(=O)NC(CCC(=O)NCCNCCNc1c2ccccc2nc2cccc([N+](=O)[O-])c12)C(N)=O (configuration not stated)
T-47D breast
  TGI: 45.8 µM
SF-295 CNS
  TGI: > 100 µM
EKVX NSCLC
  TGI: 32.9 µM
UACC-257 melanoma
  TGI: 70.5 µM
HT29 colon
  TGI: 47.7 µM
SNB-19 CNS
  TGI: > 67.7 µM
OVCAR-3 ovarian
  TGI: 47.7 µM
SK-OV-3 ovarian
  TGI: > 100 µM
CAKI-1 renal
  TGI: > 100 µM
MOLT-4 leukemia
  TGI: > 100 µM
UO-31 renal
  TGI: 59.4 µM
NCI-H226 lung
  TGI: 39.4 µM
ACHN renal
  TGI: > 61.1 µM
MDA-MB-231 breast
  TGI: 53.1 µM
A498 renal
  TGI: 40.3 µM
RPMI-8226 leukemia
  TGI: 34.6 µM
HCT-116 colon
  TGI: 24.5 µM

## O=C1/C(=C\Oc2ccc(F)cc2)N2CCC1CC2
T-47D breast
  TGI: > 100 µM
SF-295 CNS
  TGI: > 100 µM
EKVX NSCLC
  TGI: > 100 µM
UACC-257 melanoma
  TGI: > 100 µM
HT29 colon
  TGI: > 100 µM
SNB-19 CNS
  TGI: > 100 µM
OVCAR-3 ovarian
  TGI: > 100 µM
SK-OV-3 ovarian
  TGI: > 100 µM
CAKI-1 renal
  TGI: > 100 µM
MOLT-4 leukemia
  TGI: > 100 µM
UO-31 renal
  TGI: > 100 µM
NCI-H226 lung
  TGI: > 100 µM
ACHN renal
  TGI: > 100 µM
MDA-MB-231 breast
  TGI: > 100 µM
A498 renal
  TGI: > 100 µM
RPMI-8226 leukemia
  TGI: > 100 µM
HCT-116 colon
  TGI: > 100 µM

## O=C(NC1(c2cc3ccccc3s2)CCCCC1)C1CCC1
T-47D breast
  TGI: > 100 µM
SF-295 CNS
  TGI: > 100 µM
EKVX NSCLC
  TGI: > 100 µM
UACC-257 melanoma
  TGI: > 100 µM
HT29 colon
  TGI: > 100 µM
SNB-19 CNS
  TGI: > 100 µM
OVCAR-3 ovarian
  TGI: > 100 µM
SK-OV-3 ovarian
  TGI: > 100 µM
CAKI-1 renal
  TGI: > 100 µM
MOLT-4 leukemia
  TGI: > 100 µM
UO-31 renal
  TGI: > 100 µM
NCI-H226 lung
  TGI: > 100 µM
ACHN renal
  TGI: > 100 µM
MDA-MB-231 breast
  TGI: > 100 µM
A498 renal
  TGI: > 100 µM
RPMI-8226 leukemia
  TGI: > 100 µM
HCT-116 colon
  TGI: > 100 µM
